In patent US4906622A, “Optically active 2-chloro-12-(3-dimethylamino-2-methyl-propyl)-12H-dibenzo[d.g] [1,3,6] dioxazocines and a process for the preparation thereof” (Egis Gyogyszergyar, priority 1985, dated 1990):
Counter-ions that a name gives are not always drawn. Like-named read-outs stand apart in the source and are kept apart here.

How the values were obtained:
[1] = Local anaesthetic activity; format: in vivo; conditions: primary tests / detailed tests
[2] = tested on: tremor induced by tremorine; experiment: animal or person; format: in vivo, mice; conditions: for ED50: Mus musculus; for ED50 / T.I. (therapeutic index) (Table 1) / T.I. (therapeutic index) (Table 2): po; for ED50 p.o., inhibition of tremor induced by tremorine (Table 1) / ED50 p.o., inhibition of tremor induced by tremorine (Table 2): hydrochloride
Procedure: (§1) The hydrochloride of the racemic compound, the hydrochloride of the (-)-isomer [compound of Example 6; the salt has (+) rotation] and the hydrochloride of the (+)-isomer [compound of Example 7; the salt has (-) rotation] were tested for acute toxicity on mice with peroral treatment and for the inhibition of tremor induced by tremorine (the latter test characterizes the action against Parkinson's disease). In the latter case, the inhibition of tremor induced by tremorine [1,1'-(2-butynylene)-dipyrrolidine] administered intraperitoneally at a dosage of 20 mg/kg was tested on mice as described in Science, 124, 79 (1956). The compound to be examined was given perorally to a population of 50 mice one hour prior to the administration of tremorine, and the tremor developed was evaluated 45 minutes after the administration of tremorine.
Since a lower population of mice was used, less exact values of ED50 were obtained for the compounds tested. Thus, the therapeutic index calculated for the racemic compound is lower by a factor of about 2.4 than the value given in U.S. Pat. No. 4 4,208,410. However, the data obtained under identical test circumstances on a relatively low number of test animals can be compared with each other.
(§2) To make sure that no contradiction exists between the data of Table I on the one hand, and the data of U.S. Pat. No. 4,208,410 on the other hand, the above tests was repeated using a population of 500 mice for each compound tested.

[3] = Acute toxicity on mice with peroral treatment; format: in vivo; conditions: mouse, in vivo, po
Procedure: as §1, §2

[4] = tested on: mice; experiment: Acute toxicity on mice with peroral treatment; format: in vivo; conditions: for LD50 p.o. (Table 1): Table 1, hydrochloride; for LD50 p.o. (Table 2): repeated test, population of 500 mice for each compound, hydrochloride
Procedure: as §1, §2

[5] = cited from earlier work
[6] = p.o. one hour before tremorine 20 mg/kg i.p., evaluated 45 minutes after tremorine, population of 50 mice
[7] = repeated test, population of 500 mice for each compound
[8] = population of 500 mice, U.S. Pat. No. 4,208,410

Structure (SMILES) | local anaesthetic activity [1] | ED50 ([2]; p.o. one hour before tremorine 20 mg/kg i.p., evaluated 45 minutes after tremorine, population of 50 mice, read-out: ED50 p.o., inhibition of tremor induced by tremorine (Table 1)) | ED50 ([2]; repeated test, population of 500 mice for each compound, read-out: ED50 p.o., inhibition of tremor induced by tremorine (Table 2)) | factor by which the therapeutic index is lower than the value given in U.S. Pat. No. 4,208,410 ([2]; mouse, in vivo) | T.I. (therapeutic index) (Table 1) ([2]; mouse, in vivo) | T.I. (therapeutic index) (Table 2) ([2]; mouse, in vivo) | LD50 ([3]; Table 1, read-out: LD50 p.o. (Table 1)) | LD50 ([3]; repeated test, population of 500 mice for each compound, read-out: LD50 p.o. (Table 2)) | ED50 p.o., inhibition of tremor induced by tremorine (Table 1) [2, 6] | ED50 p.o., inhibition of tremor induced by tremorine (Table 2) [2, 7] | LD50 p.o. (Table 1) [4] | LD50 p.o. (Table 2) [4] | local anaesthetic and antiparkinsonic activity ([5]; known from U.S. Pat. No. 4,208,410) | ED50, antiparkinsonic activity [5, 8] | therapeutic index [5, 8]
CC(CN(C)C)CN1c2ccccc2OCOc2ccc(Cl)cc21 (racemic) [racemic, reference compound] | has local anaesthetic activity, detailed tests have not shown any therapeutically valuable effect | 25 mg/kg | 10.5 mg/kg | about 2.4 | 10.8 | 25.7 | 270 mg/kg | 270 mg/kg |  |  |  |  |  |  | 
CC(CN(C)C)CN1c2ccccc2OCOc2ccc(Cl)cc21 (single isomer, unassigned; (+)) [Example 6, (+)-2-chloro-12-(3-dimethylamino-2-methylpropyl)-12H-dibenzo[d,g][1,3,6]dioxazocine hydrochloride] |  |  |  |  | 72.7 | 168.4 |  |  | 2.2 mg/kg | 0.95 mg/kg | 160 mg/kg | 160 mg/kg |  |  | 
CC(CN(C)C)CN1c2ccccc2OCOc2ccc(Cl)cc21 (single isomer, unassigned; (-)) [Example 7, (-)-2-Chloro-12-(3-dimethylamino-2-methylpropyl)-12H-dibenzo[d,g][1,3,6]dioxazocine hydrochloride] |  |  |  |  | 65.7 | 160.8 |  |  | 7 mg/kg | 2.86 mg/kg | 460 mg/kg | 460 mg/kg |  |  | 
CC(CN(C)C)CN1c2ccccc2OCOc2ccc(Cl)cc21 (racemic) [2-chloro-12-(3-dimethylamino-2-methylpropyl)-12H-dibenzo[d,g][1,3,6]-dioxazocine] |  |  |  |  |  |  |  |  |  |  |  |  | has local anaesthetic and antiparkinsonic activity | 11 mg/kg | 25
